# Reference: US20070122859A1, “Immunoassay for LSD and 2-oxo-3-hydroxy-LSD” (priority 2000, published 2007)
# Where two headings read alike, the source gives them in different places.
# Key:
# [1] = test system: Clone 1.1; assay: ELISA antibody cross-reactivity, Clone 1.1; type: binding, mouse
# Procedure: (§1) Cross-reactivity of three clones for LSD, nor-LSD and 2-oxo-3-hydroxy-LSD was determined using an ELISA technique. Microtiter plates were coated with 100 μl of 0.325 mg/ml LSD-BSA or 100 μl of 0.325 mg/ml 2-oxo-3-hydroxy-LSD-BSA for 1 hour at 37° C. and post-blocked with 200 μl of 1% BSA in PBS for 1 hour at room temperature. Plates were washed 3 times with 400 μl of PBS-0.1% TWEEN-20. Free LSD, nor-LSD and 2-oxo-3-hydroxy-LSD were diluted to 1000 ng/ml in PBS. Antibody was diluted 8,000 fold. Drug solutions, 200 μl of 1000 ng/ml, solutions were dispensed into the first column of an ELISA plate. The rest of the wells were filled with 100 μl of PBS. Serial dilutions of the drugs were prepared by taking 100 μl of the drug solution out of the first column and dispensing it into the second column of the plate. Contents of the wells were mixed thoroughly by pipetting the solution up and down 5 times. 100 μl out of the second column was dispensed into the third column and mixed as above. The process was repeated for all 12 columns of ELISA plates. 100 μl of solution out of the last wells was discarded. 100 μl of antibody diluted 8,000 fold was added to each well. Resulting concentrations of the drug were 500 ng/ml, 250 ng/ml, 125 ng/ml, 62.5 ng/ml, 31.2 ng/ml, 15.6 ng/ml, 7.81 ng/ml, 3.90 ng/ml, 1.95 ng/ml, 0.976 ng/ml, 0.488 ng/ml, 0.244 ng/ml. Final antibody dilution was 16,000 fold. Plates were incubated for 1 hour at 37° C. and washed 3 times with PBS-TWEEN-20. Rabbit anti-mouse HRP conjugated IgG was diluted 5,000 fold and 100 μl were added to ELISA plates. The plates were incubated for 1 hour at 37° C. and washed 3 times with PBS-TWEEN-20. 100 μl of K-BLUE substrate was dispensed into each well. Plates were incubated for 30 min at room temperature in the dark. The reaction was stopped with 100 μl of 2 M H3PO4, and absorbance was read at 450 nm.
# [2] = test system: antibodies specific for LSD; conditions: CEDIA (Microgenics Corporation) immunoassay; cited from earlier work
# [3] = test system: antibodies specific for LSD; conditions: EMIT (Syva Company) immunoassay; cited from earlier work
# [4] = cited from earlier work
# [5] = test system: antibodies specific for LSD; conditions: KIMS (Roche Diagnostics) immunoassay; cited from earlier work
# [6] = test system: Clone 20.2; assay: ELISA antibody cross-reactivity, Clone 20.2; type: binding, mouse
# Procedure: as §1
# [7] = test system: Clone 2.1; assay: ELISA antibody cross-reactivity, Clone 2.1; type: binding, mouse
# Procedure: as §1
# [8] = Dilution 0.2 (free drug 0.244 ng/ml)
# [9] = Dilution 0.5 (free drug 0.488 ng/ml)
# [10] = Dilution 1.0 (free drug 0.976 ng/ml)
# [11] = Dilution 2.0 (free drug 1.95 ng/ml)
# [12] = Dilution 3.9 (free drug 3.90 ng/ml)
# [13] = Dilution 7.8 (free drug 7.81 ng/ml)
# [14] = Dilution 15.6 (free drug 15.6 ng/ml)
# [15] = Dilution 31.3 (free drug 31.2 ng/ml)
# [16] = Dilution 62.5 (free drug 62.5 ng/ml)
# [17] = Dilution 125.0 (free drug 125 ng/ml)
# [18] = Dilution 250.0 (free drug 250 ng/ml)
# [19] = Dilution 500.0 (free drug 500 ng/ml)
# [20] = based upon specificity to 2-oxo-3-hydroxy-LSD
smiles,measurement,setting,value
"CCN(CC)C(=O)[C@@H]1C=C2c3cccc4c3C(O)(C[C@H]2N(C)C1)C(=O)N4 (stereo partly drawn) [2-oxo-3-hydroxy-LSD, 2-oxo-3-hydroxy-d-lysergic acid diethylamide]",A450,[1]; [8],3.913
same,A450,[1]; [9],3.928
same,A450,[1]; [10],4.033
same,A450,[1]; [11],4.015
same,A450,[1]; [12],3.908
same,A450,[1]; [13],3.914
same,A450,[1]; [14],3.310
same,A450,[1]; [15],3.108
same,A450,[1]; [16],2.278
same,A450,[1]; [17],1.768
same,A450,[1]; [18],1.425
same,A450,[1]; [19],0.871
same,Calculated percentage cross-reactivity,[1]; [20],100.0%
same,Calculated percentage cross-reactivity,[1]; based upon specificity to LSD,133.6%
same,cross-reactivity,[2],1.8%
same,cross-reactivity,[3],1.7%
same,time detectable after ingestion of the drug,"[4]; urine, compared with LSD",can be detected for a longer time than LSD
same,cross-reactivity,[5],11%
same,A450,[6]; [8],0.838
same,A450,[6]; [9],0.704
same,A450,[6]; [10],0.430
same,A450,[6]; [11],0.372
same,A450,[6]; [12],0.316
same,A450,[6]; [13],0.272
same,A450,[6]; [14],0.220
same,A450,[6]; [15],0.148
same,A450,[6]; [16],0.142
same,A450,[6]; [17],0.143
same,A450,[6]; [18],0.144
same,A450,[6]; [19],0.142
same,Calculated percentage cross-reactivity,[6]; [20],100.0%
same,Calculated percentage cross-reactivity,[6]; based upon specificity to LSD,118.5%
same,A450,[7]; [8],0.846
same,A450,[7]; [9],0.690
same,A450,[7]; [10],0.552
same,A450,[7]; [11],0.531
same,A450,[7]; [12],0.372
same,A450,[7]; [13],0.321
same,A450,[7]; [14],0.294
same,A450,[7]; [15],0.309
same,A450,[7]; [16],0.243
same,A450,[7]; [17],0.256
same,A450,[7]; [18],0.297
same,A450,[7]; [19],0.243
same,Calculated percentage cross-reactivity,[7]; [20],100.0%
same,Calculated percentage cross-reactivity,[7]; based upon specificity to LSD,131.4%
"CCN(CC)C(=O)[C@@H]1C=C2c3cccc4[nH]cc(c34)C[C@H]2N(C)C1 [LSD, 9,10-didehydro-N,N-diethyl-6-methylergoline-8β-carboxamide]",A450,[1]; [8],3.797
same,A450,[1]; [9],4.085
same,A450,[1]; [10],3.962
same,A450,[1]; [11],3.905
same,A450,[1]; [12],3.951
same,A450,[1]; [13],3.831
same,A450,[1]; [14],3.519
same,A450,[1]; [15],3.390
same,A450,[1]; [16],2.633
same,A450,[1]; [17],2.050
same,A450,[1]; [18],1.433
same,A450,[1]; [19],0.831
same,Calculated percentage cross-reactivity,[1]; [20],74.9%
same,Calculated percentage cross-reactivity,[1]; based upon specificity to LSD,100.0%
same,parent drug excreted in human urine,[4]; human urine,about 1%
same,A450,[6]; [8],0.833
same,A450,[6]; [9],0.658
same,A450,[6]; [10],0.587
same,A450,[6]; [11],0.328
same,A450,[6]; [12],0.284
same,A450,[6]; [13],0.204
same,A450,[6]; [14],0.160
same,A450,[6]; [15],0.126
same,A450,[6]; [16],0.126
same,A450,[6]; [17],0.124
same,A450,[6]; [18],0.188
same,A450,[6]; [19],0.122
same,Calculated percentage cross-reactivity,[6]; [20],84.4%
same,Calculated percentage cross-reactivity,[6]; based upon specificity to LSD,100.0%
same,A450,[7]; [8],0.831
same,A450,[7]; [9],0.738
same,A450,[7]; [10],0.579
same,A450,[7]; [11],0.523
same,A450,[7]; [12],0.435
same,A450,[7]; [13],0.339
same,A450,[7]; [14],0.303
same,A450,[7]; [15],0.294
same,A450,[7]; [16],0.252
same,A450,[7]; [17],0.240
same,A450,[7]; [18],0.234
same,A450,[7]; [19],0.236
same,Calculated percentage cross-reactivity,[7]; [20],76.1%
same,Calculated percentage cross-reactivity,[7]; based upon specificity to LSD,100.0%
"CCN(CC)C(=O)[C@@H]1C=C2c3cccc4[nH]cc(c34)C[C@H]2NC1 [nor-LSD, N-desmethyl-LSD]",A450,[1]; [8],4.019
same,A450,[1]; [9],4.074
same,A450,[1]; [10],4.100
same,A450,[1]; [11],3.884
same,A450,[1]; [12],4.035
same,A450,[1]; [13],3.805
same,A450,[1]; [14],3.740
same,A450,[1]; [15],3.735
same,A450,[1]; [16],3.601
same,A450,[1]; [17],3.512
same,A450,[1]; [18],3.340
same,A450,[1]; [19],2.968
same,Calculated percentage cross-reactivity,[1]; [20],1.9%
same,Calculated percentage cross-reactivity,[1]; based upon specificity to LSD,2.6%
same,A450,[6]; [8],0.908
same,A450,[6]; [9],0.866
same,A450,[6]; [10],0.853
same,A450,[6]; [11],0.799
same,A450,[6]; [12],0.722
same,A450,[6]; [13],0.656
same,A450,[6]; [14],0.584
same,A450,[6]; [15],0.464
same,A450,[6]; [16],0.416
same,A450,[6]; [17],0.292
same,A450,[6]; [18],0.228
same,A450,[6]; [19],0.288
same,Calculated percentage cross-reactivity,[6]; [20],4.6%
same,Calculated percentage cross-reactivity,[6]; based upon specificity to LSD,5.5%
same,A450,[7]; [8],0.900
same,A450,[7]; [9],0.859
same,A450,[7]; [10],0.842
same,A450,[7]; [11],0.792
same,A450,[7]; [12],0.786
same,A450,[7]; [13],0.696
same,A450,[7]; [14],0.648
same,A450,[7]; [15],0.504
same,A450,[7]; [16],0.444
same,A450,[7]; [17],0.384
same,A450,[7]; [18],0.318
same,A450,[7]; [19],0.276
same,Calculated percentage cross-reactivity,[7]; [20],1.8%
same,Calculated percentage cross-reactivity,[7]; based upon specificity to LSD,2.3%
